Numbers after ± are expanded uncertainties.
Assay: xn = mol fraction of the nth substance listed
Conditions: Liquid, Vibrating tube method

CC(C)=O [acetone] + CCCCCCC
Conditions | mass density [kg/m3]
347.61 K, 99820 kPa, x1 = 0.7024 | 766.18 ± 1.5
347.61 K, 104810 kPa, x1 = 0.7024 | 768.98 ± 1.5
347.61 K, 109800 kPa, x1 = 0.7024 | 771.73 ± 1.6
347.61 K, 114810 kPa, x1 = 0.7024 | 774.41 ± 1.6
347.61 K, 119820 kPa, x1 = 0.7024 | 777.02 ± 1.6
347.61 K, 124830 kPa, x1 = 0.7024 | 779.56 ± 1.6
347.61 K, 129810 kPa, x1 = 0.7024 | 782.01 ± 1.6
347.62 K, 1020 kPa, x1 = 0.801 | 689 ± 1.2
347.62 K, 1220 kPa, x1 = 0.4 | 705.05 ± 1.2
347.62 K, 1220 kPa, x1 = 0.8992 | 705.05 ± 1.2
347.62 K, 4860 kPa, x1 = 0.801 | 695.13 ± 1.2
347.62 K, 5030 kPa, x1 = 0.4 | 711.05 ± 1.2
347.62 K, 5030 kPa, x1 = 0.8992 | 711.05 ± 1.2
347.62 K, 9870 kPa, x1 = 0.801 | 702.45 ± 1.2
347.62 K, 10010 kPa, x1 = 0.4 | 718.22 ± 1.3
347.62 K, 10010 kPa, x1 = 0.8992 | 718.22 ± 1.2
347.62 K, 14850 kPa, x1 = 0.801 | 709.08 ± 1.2
347.62 K, 15000 kPa, x1 = 0.4 | 724.83 ± 1.3
347.62 K, 15000 kPa, x1 = 0.8992 | 724.83 ± 1.2
347.62 K, 19850 kPa, x1 = 0.801 | 715.23 ± 1.2
347.62 K, 24850 kPa, x1 = 0.801 | 720.94 ± 1.3
347.62 K, 29860 kPa, x1 = 0.801 | 726.31 ± 1.3
347.62 K, 34950 kPa, x1 = 0.4 | 746.98 ± 1.3
347.62 K, 34950 kPa, x1 = 0.8992 | 746.98 ± 1.3
347.62 K, 39850 kPa, x1 = 0.801 | 736.15 ± 1.3
347.62 K, 39940 kPa, x1 = 0.4 | 751.76 ± 1.3
347.62 K, 39940 kPa, x1 = 0.8992 | 751.76 ± 1.3
347.62 K, 44930 kPa, x1 = 0.4 | 756.3 ± 1.3
347.62 K, 44930 kPa, x1 = 0.8992 | 756.3 ± 1.3
347.62 K, 49910 kPa, x1 = 0.4 | 760.61 ± 1.4
347.62 K, 49910 kPa, x1 = 0.8992 | 760.61 ± 1.3
347.62 K, 54840 kPa, x1 = 0.801 | 749.08 ± 1.4
347.62 K, 54890 kPa, x1 = 0.4 | 764.72 ± 1.4
347.62 K, 54890 kPa, x1 = 0.8992 | 764.72 ± 1.3
347.62 K, 59880 kPa, x1 = 0.4 | 768.69 ± 1.4
347.62 K, 59880 kPa, x1 = 0.8992 | 768.69 ± 1.4
347.62 K, 64870 kPa, x1 = 0.4 | 772.47 ± 1.4
347.62 K, 64870 kPa, x1 = 0.8992 | 772.47 ± 1.4
347.62 K, 69850 kPa, x1 = 0.4 | 776.15 ± 1.4
347.62 K, 69850 kPa, x1 = 0.8992 | 776.15 ± 1.4
347.62 K, 74830 kPa, x1 = 0.4 | 779.64 ± 1.4
347.62 K, 74830 kPa, x1 = 0.8992 | 779.64 ± 1.4
347.62 K, 74890 kPa, x1 = 0.801 | 763.9 ± 1.4
347.62 K, 79820 kPa, x1 = 0.4 | 783.06 ± 1.4
347.62 K, 79820 kPa, x1 = 0.8992 | 783.06 ± 1.4
347.62 K, 79870 kPa, x1 = 0.801 | 767.26 ± 1.4
347.62 K, 84800 kPa, x1 = 0.4 | 786.42 ± 1.4
347.62 K, 84800 kPa, x1 = 0.8992 | 786.42 ± 1.4
347.62 K, 89780 kPa, x1 = 0.4 | 789.6 ± 1.5
347.62 K, 89780 kPa, x1 = 0.8992 | 789.6 ± 1.4
347.62 K, 94760 kPa, x1 = 0.4 | 792.68 ± 1.5
347.62 K, 94760 kPa, x1 = 0.8992 | 792.68 ± 1.4
347.62 K, 99740 kPa, x1 = 0.4 | 795.68 ± 1.5
347.62 K, 99740 kPa, x1 = 0.8992 | 795.68 ± 1.5
347.62 K, 99810 kPa, x1 = 0.801 | 779.62 ± 1.5
347.62 K, 104710 kPa, x1 = 0.4 | 798.57 ± 1.5
347.62 K, 104710 kPa, x1 = 0.8992 | 798.57 ± 1.5
347.62 K, 109700 kPa, x1 = 0.4 | 801.41 ± 1.5
347.62 K, 109700 kPa, x1 = 0.8992 | 801.41 ± 1.5
347.62 K, 114660 kPa, x1 = 0.4 | 804.17 ± 1.5
347.62 K, 114660 kPa, x1 = 0.8992 | 804.17 ± 1.5
347.62 K, 119630 kPa, x1 = 0.4 | 806.86 ± 1.5
347.62 K, 119630 kPa, x1 = 0.8992 | 806.86 ± 1.5
347.62 K, 124610 kPa, x1 = 0.4 | 809.5 ± 1.6
347.62 K, 124610 kPa, x1 = 0.8992 | 809.5 ± 1.5
347.62 K, 124830 kPa, x1 = 0.801 | 793.29 ± 1.6
347.62 K, 129570 kPa, x1 = 0.4 | 812.05 ± 1.6
347.62 K, 129570 kPa, x1 = 0.8992 | 812.05 ± 1.5
347.63 K, 1030 kPa, x1 = 0.492 | 657.71 ± 1.2
347.63 K, 1030 kPa, x1 = 0.611 | 666.96 ± 1.2
347.63 K, 4850 kPa, x1 = 0.492 | 663.76 ± 1.2
347.63 K, 4870 kPa, x1 = 0.611 | 673.09 ± 1.2
347.63 K, 9850 kPa, x1 = 0.492 | 670.93 ± 1.2
347.63 K, 9870 kPa, x1 = 0.611 | 680.36 ± 1.2
347.63 K, 14850 kPa, x1 = 0.492 | 677.45 ± 1.2
347.63 K, 19850 kPa, x1 = 0.492 | 683.45 ± 1.3
347.63 K, 19980 kPa, x1 = 0.4 | 730.92 ± 1.3
347.63 K, 19980 kPa, x1 = 0.8992 | 730.92 ± 1.2
347.63 K, 24860 kPa, x1 = 0.492 | 689 ± 1.3
347.63 K, 24960 kPa, x1 = 0.4 | 736.6 ± 1.3
347.63 K, 24960 kPa, x1 = 0.8992 | 736.6 ± 1.3
347.63 K, 29860 kPa, x1 = 0.492 | 694.2 ± 1.3
347.63 K, 29960 kPa, x1 = 0.4 | 741.95 ± 1.3
347.63 K, 29960 kPa, x1 = 0.8992 | 741.95 ± 1.3
347.63 K, 34850 kPa, x1 = 0.492 | 699.05 ± 1.3
347.63 K, 34850 kPa, x1 = 0.801 | 731.37 ± 1.3
347.63 K, 39860 kPa, x1 = 0.492 | 703.65 ± 1.3
347.63 K, 44850 kPa, x1 = 0.801 | 740.65 ± 1.3
347.63 K, 44870 kPa, x1 = 0.492 | 708.02 ± 1.3
347.63 K, 49830 kPa, x1 = 0.492 | 712.11 ± 1.4
347.63 K, 49850 kPa, x1 = 0.801 | 744.95 ± 1.3
